Patent publication US20140024839A1, “FULLERENE DERIVATIVE, AND METHOD OF PREPARING THE SAME” (RICOH COMPANY, LTD., priority 2012, published 2014)

Assay: Solubility in o-dichlorobenzene (saturated solution, HPLC with standard curves)
Format: physicochemical
Details: saturated o-dichlorobenzene solution at 25° C., filtered 0.45 μm, HPLC 254 nm
Method: Solubilities of the fullerene derivatives having the formulae (1a) to (5a) of the present invention in Examples 1 to 5 and the fullero pyrrolidine in Application Examples 1 to 5 in o-dichlorobenzene were evaluated by the following method. A 0.1 mM o-dichlorobenzene solution and a 1.0 mM o-dichlorobenzene solution of each of the fullerene derivatives and the fullero pyrrolidine were prepared, and diluted fivefold with THF for HPLC. Ten (10) μL of the diluted solution was analyzed by a high-speed liquid chromatograph (LC-2010HT from Shimadzu Corp.; developing solvent: THF/ion-exchanged water=60/40; analysis time: 60 min; and detection wavelength: 254 nm) to prepare a chromatogram. Standard curves of the known concentrations (0.1 mM and 1.0 mM) were obtained therefrom. Next, a saturated o-dichlorobenzene solution of each of the fullerene derivatives and the fullero pyrrolidine were prepared at 25° C. After the saturated solution was filtered with a 0.45 μm filter, it was diluted hundredfold with THF for HPLC. Ten (10) μL of the diluted solution was analyzed by the same method mentioned above to prepare a chromatogram. A weight of the fullerene derivative dissolved in 1 mL of o-dichlorobenzene was determined as solubility using a peak area value of the chromatogram from the saturated solution and the standard curves.

Structure (SMILES) | Weight of the fullerene derivative dissolved in 1 mL of o-dichlorobenzene [mg]
CC(C)(C)OC(=O)Oc1ccc(N2CC34C5=c6c7c8c9c%10c%11c%12c%13c%14c%15c%16c%17c(c6c(c%16%13)c%117)C3(C2C(C)(C)C)C2C%173CC26c2c7c%11c%13c%16c2c2c%17c%18c%19c%20c%21c%22c%23c(c-%13c%21c%18%16)C(C%14C%23C%12C%10C%22C%20C9C9C8C5C(C%17C%199)C4C26)C%11C%15C73)cc1 (stereo not drawn) [formula (3a)] | 107
CCCCCCCCCC1N(c2ccc(OC(=O)OC(C)(C)C)cc2)CC23C4=c5c6c7c8c9c%10c%11c%12c%13c%14c%15c%16c(c5c(c%15%12)c%106)C12C1C%162CC15c1c6c%10c%12c%15c%16c%17c%18c%19c%20c%21c%22c%23c%24c(c1c%12c(c%21%24)c%19%15)C5C3C%23C4C7C%22C8C%20C%18C9C%11C%17C%13C%16C%10C%14C62 (stereo not drawn) [formula (4a)] | 159
CCCCCCCCCCCCC1N(c2ccc(OC(=O)OC(C)(C)C)cc2)CC23C4=c5c6c7c8c9c%10c%11c%12c%13c%14c%15c%16c(c5c(c%15%12)c%106)C12C1C%162CC15c1c6c%10c%12c%15c%16c%17c%18c%19c%20c%21c%22c%23c%24c(c1c%12c(c%21%24)c%19%15)C5C3C%23C4C7C%22C8C%20C%18C9C%11C%17C%13C%16C%10C%14C62 (stereo not drawn) [formula (5a)] | 280
